According to patent publication US10415054B2, “Designer circuit controlling diet-induced obesity” (ETH ZURICH, priority 2013, dated 2019):

What was measured:
[1] = target: T1, lipid-sensing receptor (LSR; TtgR-PPARα) (UniProt Q07869+Q9AIU0); assay: Fatty acid/fibrate-controlled SEAP expression in pKR135/pMG10-transgenic HT-1080; assay type: cell-based, human; settings: for sensitivity of LSR (SEAP expression): pKR135/pMG10-transgenic HT-1080, 48 h, FIG. 3d,e
T1 construct: TtgR (phloretin-responsive repressor of Pseudomonas putida DOT-T1E); expressed in transfected cells; host or cells: HT-1080 (A1, A5; in A5 microencapsulated and implanted into mice); several rodent, primate and human cell lines (A2)
T1 sequence (Q9AIU0+Q07869 with tags, fused parts or gaps): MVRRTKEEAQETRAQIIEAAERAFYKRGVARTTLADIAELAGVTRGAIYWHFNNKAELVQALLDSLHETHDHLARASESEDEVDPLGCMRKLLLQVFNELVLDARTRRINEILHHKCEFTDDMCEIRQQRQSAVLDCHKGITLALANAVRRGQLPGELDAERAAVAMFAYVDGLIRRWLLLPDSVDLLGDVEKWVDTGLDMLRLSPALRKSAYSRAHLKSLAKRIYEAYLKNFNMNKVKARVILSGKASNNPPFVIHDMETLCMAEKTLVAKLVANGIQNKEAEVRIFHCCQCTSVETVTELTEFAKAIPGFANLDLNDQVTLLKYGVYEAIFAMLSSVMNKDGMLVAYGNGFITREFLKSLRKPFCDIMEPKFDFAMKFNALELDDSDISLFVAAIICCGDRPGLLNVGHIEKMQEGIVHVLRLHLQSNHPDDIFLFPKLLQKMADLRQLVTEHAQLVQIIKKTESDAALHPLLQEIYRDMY
Experimental: Wild-type Chinese hamster ovary cells (CHO-K1, ATCC: CCL-61) were cultured in ChoMaster® HTS (Cell Culture Technologies GmbH, Gravesano, Switzerland) containing 1% penicillin/streptomycin. All cell types were cultivated at 37° C. in a humidified atmosphere containing 5% CO2. […] After transfection, all cells were cultivated in their specific media containing different inducer concentrations and reporter protein levels were profiled after 48 h unless stated otherwise. […]

[2] = target: T1, lipid-sensing receptor (LSR; TtgR-PPARα); assay: Linoleic acid-induced SEAP expression in different cell lines cotransfected with pKR135/pMG10; assay type: cell-based; settings: several rodent, primate and human cell lines, 48 h, FIG. 2
Experimental: Linoleic acid-induced SEAP expression in different cell lines. Cells were cotransfected with the LSR-encoding expression vector (pKR135; PhCMV-LSR-pA) and the PTtgR1-driven SEAP expression plasmid (pMG10; […]), grown in the presence of different linoleic acid (LA) concentrations, and SEAP levels were profiled in the culture supernatant after 48 h.
(§1) Human embryonic kidney cells (HEK-293T, ATCC: CRL-11268), Baby hamster kidney cells (BHK-21, ATCC: CCL-10), African green monkey kidney cells (COS-7, ATCC: CRL-1651), human cervical adenocarcinoma cells (HeLa, ATCC: CCL-2), human fibrosarcoma cells (HT-1080, ATCC: CCL-121) and immortalized human mesenchymal stem cells (hMSC) (Simonsen, J. L. et al., Nat Biotechnol 20, 592-596 (2002)) were cultivated in Dulbecco's modified Eagle's medium (DMEM; Invitrogen, Basel, Switzerland) supplemented with 1% (v/v) penicillin/streptomycin solution (Sigma-Aldrich, Munich, Germany). […]
(§2) Production of the human placental secreted alkaline phosphatase (SEAP) in culture was quantified according to a p-nitrophenylphosphate-based time course of light absorbance (Schlatter S. et al., Gene 282, 19-31 (2002)). Serum levels of SEAP were quantified using a chemiluminescence-based assay (Roche Diagnostics GmbH, Mannheim, Germany).

TtgA1 (TtgR-VP16) = target: T2, TtgA1 (TtgR-VP16) (Pseudomonas putida, UniProt Q9AIU0); assay: Phloretin-responsive gene switch (pMG10/pMG11) in HT-1080 exposed to linoleic acid; assay type: cell-based; settings: HT-1080 pMG10/pMG11, 48 h, FIG. 6
T2 construct: expressed in transfected cells; host or cells: HT-1080
Experimental: HT-1080 were cotransfected with the components encoding the phloretin-responsive gene switch (pMG10, (PTtgR1-SEAP-pA) and pMG11, (PSV40-TtgA1-pA)) and grown for 48 h in the presence of increasing linoleic acid (LA) concentrations before SEAP was profiled in the cell culture supernatant.
as §1, with “Germany). Wild-type Chinese hamster ovary cells (CHO-K1, ATCC: CCL-61) were cultured in ChoMaster® HTS (Cell Culture Technologies GmbH, Gravesano, Switzerland) containing 1% penicillin/streptomycin.” for “Germany).”
as §2

LSR sensor device = target: T3, LSR sensor device (UniProt Q07869+Q9AIU0); assay: Serum SEAP in wild type mice implanted with microencapsulated pKR135/pMG10-transgenic HT-1080; assay type: in vivo; settings: wild type mice on standard diet, 48 h, FIG. 4a,b
T3 construct: TtgR (phloretin-responsive repressor of Pseudomonas putida DOT-T1E); expressed in transfected cells; host or cells: HT-1080 (A1, A5; in A5 microencapsulated and implanted into mice); several rodent, primate and human cell lines (A2)
T3 sequence (Q9AIU0+Q07869 with tags, fused parts or gaps): T1 sequence (Q9AIU0+Q07869 with tags, fused parts or gaps)
From the text: (a-d) Standard low fat-fed wild type mice were implanted with microencapsulated pKR135-/pMG10-transgenic HT-1080 (2×10^6 cells/mouse) and received different doses of linoleic acid (LA) and palmitic acid (PA) (fatty acids, FA) (a), rapeseed oil (RO) (b) or were put on standard low fat (LF, 5 kcal % fat), medium fat (MF, 10 kcal % fat) and high fat (HF, 60 kcal % fat) diets (D) (c, d). Resulting blood SEAP (bSEAP) levels (a, b, d) and blood fat levels (BF) represented by serum cholesterol (C) and phospholipid (PL) concentrations (c) were quantified after 48 h (a, b, d) or 72 h (c). Data are mean±SEM, statistics by two-tailed t test; n=8 mice. *P<0.05, **P<0.005, ***P<0.0001 vs. zero lipid doses (a,b) or LF mice (c,d).
as §2, with “Germany). […]” for “Germany).”

Compound	sensitivity of LSR (SEAP expression) [1]	also measured
Cc1cccc(Nc2cc(Cl)nc(SCC(=O)O)n2)c1C [WY-14643]	sensitive	–
CCCCC/C=C\C/C=C\C/C=C\C/C=C\CCCC(=O)O [arachidonic acid]	sensitive	–
Cc1ccc(C)c(OCCCC(C)(C)C(=O)O)c1 [gemfibrozil]	sensitive	–
CCCCCCCCCCCC(=O)O [lauric acid]	sensitive	–
CCCCC/C=C\C/C=C\CCCCCCCC(=O)O [linoleic acid]	sensitive	SEAP induction [2]: SEAP was exclusively induced; sensitivity of the phloretin-responsive control element (SEAP) (TtgA1 (TtgR-VP16)): Insensitivity; SEAP in serum (LSR sensor device): significant dose-dependent increase
CCCCCCCCCCCCCC(=O)O [myristic acid]	sensitive	–
CCCCCCCC/C=C\CCCCCCCC(=O)O [oleic acid]	sensitive	–
CCCCCCCCCCCCCCCC(=O)O [palmitic acid]	sensitive	SEAP in serum (LSR sensor device): significant dose-dependent increase
O=C(CCc1ccc(O)cc1)c1c(O)cc(O)cc1O [phloretin]	–	phloretin-triggered effect on fatty acid-induced transgene (SEAP) expression ([1]; HT-1080 induced by 100 μM linoleic acid, 48 h, FIG. 3c): shut down transgene expression
CCCCCCCCCCCCCCCCCC(=O)O [stearic acid]	sensitive	–
